Experimental data published in ChEMBL document CHEMBL1150182, “Lissoclinolide, the first non-nitrogenous metabolite from a Lissoclinum tunicate” (J Nat Prod, 1990).
Calls of active or inactive are those of the source. No cut-off for these calls is given here.

Tested on: Escherichia coli
Test: Antibacterial activity against Escherichia coli
Format: functional, organism-based

`O=C1O/C(=C\C=C\CO)C=C1/C=C/CO` was tested, and the Activity was “inactive”.
